Legend:
[1] = target: Lysine-specific histone demethylase 1A (Homo sapiens, UniProt O60341)
Description: Inhibition of human recombinant His-tagged LSD1 (171 to 836) assessed as hydrogen peroxide formation after 5 mins

[2] = target: T1, Lysine-specific demethylase 4C (Homo sapiens, UniProt Q9H3R0)
T1 sequence (Q9H3R0 whole entry): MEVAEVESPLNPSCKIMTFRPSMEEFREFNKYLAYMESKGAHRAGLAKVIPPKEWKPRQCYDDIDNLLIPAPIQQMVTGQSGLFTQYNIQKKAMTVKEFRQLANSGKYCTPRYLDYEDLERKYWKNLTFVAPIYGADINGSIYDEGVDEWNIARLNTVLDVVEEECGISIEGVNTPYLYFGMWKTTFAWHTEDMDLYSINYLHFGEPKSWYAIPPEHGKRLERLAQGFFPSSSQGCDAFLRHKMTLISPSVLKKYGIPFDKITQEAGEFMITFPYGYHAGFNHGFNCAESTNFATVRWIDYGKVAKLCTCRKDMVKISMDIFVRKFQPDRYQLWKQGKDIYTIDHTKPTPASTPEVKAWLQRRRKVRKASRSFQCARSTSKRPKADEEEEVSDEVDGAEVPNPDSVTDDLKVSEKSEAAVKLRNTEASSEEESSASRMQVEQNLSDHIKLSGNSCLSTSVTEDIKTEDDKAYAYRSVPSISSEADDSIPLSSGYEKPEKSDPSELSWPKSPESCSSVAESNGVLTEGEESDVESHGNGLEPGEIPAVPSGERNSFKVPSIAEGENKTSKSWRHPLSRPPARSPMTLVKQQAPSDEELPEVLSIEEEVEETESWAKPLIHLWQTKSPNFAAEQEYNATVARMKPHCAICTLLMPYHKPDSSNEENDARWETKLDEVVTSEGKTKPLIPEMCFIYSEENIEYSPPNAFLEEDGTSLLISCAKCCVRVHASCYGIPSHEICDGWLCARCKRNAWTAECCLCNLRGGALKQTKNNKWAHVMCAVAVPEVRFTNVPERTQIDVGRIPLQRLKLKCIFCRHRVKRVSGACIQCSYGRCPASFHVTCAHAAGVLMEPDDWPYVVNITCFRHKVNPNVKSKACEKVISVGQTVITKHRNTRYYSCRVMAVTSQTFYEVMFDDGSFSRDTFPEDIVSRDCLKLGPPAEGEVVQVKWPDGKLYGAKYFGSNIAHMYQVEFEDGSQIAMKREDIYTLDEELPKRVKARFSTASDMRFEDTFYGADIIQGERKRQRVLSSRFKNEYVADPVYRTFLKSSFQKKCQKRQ
Description: Inhibition of recombinant JMJD2C (unknown origin) incubated for 15 mins prior to substrate addition by AlphaScreen method

[3] = target: T2, Lysine-specific demethylase 2A (Homo sapiens, UniProt Q9Y2K7)
T2 sequence (Q9Y2K7 whole entry): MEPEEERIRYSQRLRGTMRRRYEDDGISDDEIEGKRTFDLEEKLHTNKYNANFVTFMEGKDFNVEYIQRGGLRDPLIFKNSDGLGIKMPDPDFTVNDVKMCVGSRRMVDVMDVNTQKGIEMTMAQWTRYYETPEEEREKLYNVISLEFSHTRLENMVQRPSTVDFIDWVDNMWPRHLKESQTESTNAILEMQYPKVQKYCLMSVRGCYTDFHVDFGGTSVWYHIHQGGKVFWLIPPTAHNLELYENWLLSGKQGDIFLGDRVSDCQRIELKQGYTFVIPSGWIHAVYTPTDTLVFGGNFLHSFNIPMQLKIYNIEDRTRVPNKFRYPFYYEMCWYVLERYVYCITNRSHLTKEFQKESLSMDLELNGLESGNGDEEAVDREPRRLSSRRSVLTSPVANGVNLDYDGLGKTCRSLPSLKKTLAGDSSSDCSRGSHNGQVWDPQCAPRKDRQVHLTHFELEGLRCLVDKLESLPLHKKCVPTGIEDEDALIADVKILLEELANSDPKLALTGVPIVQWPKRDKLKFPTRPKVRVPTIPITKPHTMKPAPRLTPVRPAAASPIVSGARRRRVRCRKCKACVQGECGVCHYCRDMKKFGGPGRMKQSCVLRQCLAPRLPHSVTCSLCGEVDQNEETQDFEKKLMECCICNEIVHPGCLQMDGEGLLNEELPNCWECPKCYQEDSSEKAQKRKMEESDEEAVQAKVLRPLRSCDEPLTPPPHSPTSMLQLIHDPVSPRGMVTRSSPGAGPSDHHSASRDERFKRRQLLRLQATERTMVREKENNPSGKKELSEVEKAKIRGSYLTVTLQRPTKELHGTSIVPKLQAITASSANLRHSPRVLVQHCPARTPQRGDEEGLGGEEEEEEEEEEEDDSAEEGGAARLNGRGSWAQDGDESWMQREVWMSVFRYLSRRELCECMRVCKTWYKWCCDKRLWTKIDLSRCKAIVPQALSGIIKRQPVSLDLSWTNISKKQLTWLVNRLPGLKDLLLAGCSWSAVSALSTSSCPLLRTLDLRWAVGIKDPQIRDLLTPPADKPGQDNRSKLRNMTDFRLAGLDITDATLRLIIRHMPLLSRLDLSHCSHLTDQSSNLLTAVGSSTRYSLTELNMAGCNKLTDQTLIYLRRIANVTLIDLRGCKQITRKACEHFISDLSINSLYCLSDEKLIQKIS
Description: Inhibition of recombinant FBXL11 (unknown origin) incubated for 15 mins prior to substrate addition by AlphaScreen method

[4] = target: Lysine-specific demethylase 5C (Homo sapiens, UniProt P41229)
Description: Inhibition of recombinant JARID1C (unknown origin) incubated for 15 mins prior to substrate addition by AlphaScreen method

[5] = target: Lysine-specific demethylase 6B (Homo sapiens, UniProt O15054)
Lysine-specific demethylase 6B, sequence (O15054 whole entry): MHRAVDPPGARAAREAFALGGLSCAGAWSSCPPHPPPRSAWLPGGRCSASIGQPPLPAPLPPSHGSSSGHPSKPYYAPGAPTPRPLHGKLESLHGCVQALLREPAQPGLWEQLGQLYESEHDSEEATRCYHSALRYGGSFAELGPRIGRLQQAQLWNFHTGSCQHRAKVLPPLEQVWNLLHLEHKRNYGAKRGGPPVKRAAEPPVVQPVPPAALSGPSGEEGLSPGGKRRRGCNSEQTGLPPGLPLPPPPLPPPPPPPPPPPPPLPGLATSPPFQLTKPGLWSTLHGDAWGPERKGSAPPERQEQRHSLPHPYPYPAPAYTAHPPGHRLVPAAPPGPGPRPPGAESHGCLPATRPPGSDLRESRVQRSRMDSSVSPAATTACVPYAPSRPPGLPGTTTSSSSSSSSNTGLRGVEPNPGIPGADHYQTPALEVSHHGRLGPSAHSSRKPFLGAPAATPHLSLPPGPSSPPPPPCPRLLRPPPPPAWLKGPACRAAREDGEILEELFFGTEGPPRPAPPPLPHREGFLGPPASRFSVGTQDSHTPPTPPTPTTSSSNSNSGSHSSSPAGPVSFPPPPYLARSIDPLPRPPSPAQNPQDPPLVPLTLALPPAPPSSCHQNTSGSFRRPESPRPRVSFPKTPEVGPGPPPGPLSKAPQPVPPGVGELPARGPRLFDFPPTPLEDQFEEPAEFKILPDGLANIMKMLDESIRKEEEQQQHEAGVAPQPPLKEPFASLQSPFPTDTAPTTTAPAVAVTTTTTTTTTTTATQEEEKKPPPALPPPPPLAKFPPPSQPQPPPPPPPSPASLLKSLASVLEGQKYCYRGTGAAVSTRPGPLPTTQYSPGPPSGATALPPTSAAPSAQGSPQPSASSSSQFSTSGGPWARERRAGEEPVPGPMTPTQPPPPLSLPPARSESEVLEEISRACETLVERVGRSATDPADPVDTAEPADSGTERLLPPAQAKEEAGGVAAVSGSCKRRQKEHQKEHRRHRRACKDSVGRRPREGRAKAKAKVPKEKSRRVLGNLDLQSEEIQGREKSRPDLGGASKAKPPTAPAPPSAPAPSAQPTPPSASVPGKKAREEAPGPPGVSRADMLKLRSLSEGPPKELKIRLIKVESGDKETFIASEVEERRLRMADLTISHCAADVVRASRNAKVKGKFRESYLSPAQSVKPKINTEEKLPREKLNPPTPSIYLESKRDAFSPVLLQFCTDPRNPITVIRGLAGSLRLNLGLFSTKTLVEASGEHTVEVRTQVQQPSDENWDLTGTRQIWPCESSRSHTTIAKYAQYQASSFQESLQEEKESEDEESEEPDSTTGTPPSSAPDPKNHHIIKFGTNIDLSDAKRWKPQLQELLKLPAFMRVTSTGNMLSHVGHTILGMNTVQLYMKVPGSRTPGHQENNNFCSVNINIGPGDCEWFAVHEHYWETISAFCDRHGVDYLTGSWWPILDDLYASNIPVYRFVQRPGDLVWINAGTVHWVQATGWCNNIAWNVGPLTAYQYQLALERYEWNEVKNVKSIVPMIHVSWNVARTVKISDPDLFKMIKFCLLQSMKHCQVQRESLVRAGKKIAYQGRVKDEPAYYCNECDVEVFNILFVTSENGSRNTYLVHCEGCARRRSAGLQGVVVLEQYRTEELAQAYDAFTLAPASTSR
Description: Inhibition of recombinant JMJD3 (unknown origin) incubated for 15 mins prior to substrate addition by AlphaScreen method

Lysine-specific demethylase 5C, sequence (P41229 whole entry): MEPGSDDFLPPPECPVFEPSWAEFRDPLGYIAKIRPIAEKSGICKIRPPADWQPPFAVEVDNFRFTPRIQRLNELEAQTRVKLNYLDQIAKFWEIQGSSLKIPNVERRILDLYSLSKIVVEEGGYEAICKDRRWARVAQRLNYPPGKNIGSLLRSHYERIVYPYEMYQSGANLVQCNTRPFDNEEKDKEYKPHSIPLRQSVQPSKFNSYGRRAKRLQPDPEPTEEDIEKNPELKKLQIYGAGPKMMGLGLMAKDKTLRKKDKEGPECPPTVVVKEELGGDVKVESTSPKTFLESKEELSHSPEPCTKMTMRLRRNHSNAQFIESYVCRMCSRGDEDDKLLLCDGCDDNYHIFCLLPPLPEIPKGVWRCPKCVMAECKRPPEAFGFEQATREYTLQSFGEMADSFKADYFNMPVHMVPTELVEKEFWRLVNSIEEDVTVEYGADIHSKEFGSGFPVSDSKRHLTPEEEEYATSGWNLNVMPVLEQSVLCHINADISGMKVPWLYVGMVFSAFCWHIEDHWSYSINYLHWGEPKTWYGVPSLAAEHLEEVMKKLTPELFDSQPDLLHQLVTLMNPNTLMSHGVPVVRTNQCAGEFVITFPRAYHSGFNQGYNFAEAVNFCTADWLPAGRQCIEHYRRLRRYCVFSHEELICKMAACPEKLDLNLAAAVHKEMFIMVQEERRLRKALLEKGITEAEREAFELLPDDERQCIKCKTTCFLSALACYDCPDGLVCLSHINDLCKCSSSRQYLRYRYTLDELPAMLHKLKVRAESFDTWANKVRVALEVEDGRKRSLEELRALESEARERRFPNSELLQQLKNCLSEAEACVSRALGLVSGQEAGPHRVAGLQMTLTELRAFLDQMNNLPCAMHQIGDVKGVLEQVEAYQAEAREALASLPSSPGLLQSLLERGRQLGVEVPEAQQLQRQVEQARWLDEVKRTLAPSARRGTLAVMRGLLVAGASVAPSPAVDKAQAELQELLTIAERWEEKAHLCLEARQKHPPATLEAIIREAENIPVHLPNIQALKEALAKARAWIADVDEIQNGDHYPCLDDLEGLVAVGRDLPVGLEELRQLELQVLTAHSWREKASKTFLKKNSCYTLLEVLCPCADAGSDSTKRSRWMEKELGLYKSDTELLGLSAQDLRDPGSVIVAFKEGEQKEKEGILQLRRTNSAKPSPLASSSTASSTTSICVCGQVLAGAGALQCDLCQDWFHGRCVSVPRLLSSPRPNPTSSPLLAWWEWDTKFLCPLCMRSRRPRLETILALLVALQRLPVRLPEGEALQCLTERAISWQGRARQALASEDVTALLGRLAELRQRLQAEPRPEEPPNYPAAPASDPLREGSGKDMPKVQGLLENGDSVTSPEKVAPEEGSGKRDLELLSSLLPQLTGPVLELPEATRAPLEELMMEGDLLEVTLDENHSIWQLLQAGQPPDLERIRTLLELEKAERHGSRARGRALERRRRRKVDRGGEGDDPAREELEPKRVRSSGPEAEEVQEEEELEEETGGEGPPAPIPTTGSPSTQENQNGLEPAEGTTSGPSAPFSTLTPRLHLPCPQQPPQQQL

SMILES | IC50 [1] [µM] | IC50 [2] [µM] | IC50 [3] [µM] | IC50 [4] [µM] | IC50 [5] [µM]
COC(=O)c1ccnc(-c2cc(C(=O)O)ccn2)c1 | > 100 | 3.5 | 4.8 | 0.03 | 11.2
Cl.N[C@@H]1C[C@H]1c1ccc(NC(=O)c2ccc(O)c3ncccc23)cc1 (relative stereo) | < 1 | 1.2 | 7.8 | 26 | 27
N[C@H]1C[C@@H]1c1ccc(NC(=O)CCCNC(=O)c2ccc(O)c3ncccc23)cc1 (relative stereo) | < 1 | 4.5 | 12 | 35 | 18
N[C@H]1C[C@@H]1c1ccc(NC(=O)CCCCNC(=O)c2ccc(O)c3ncccc23)cc1 (relative stereo) | 1.6 | 3.1 | 8.2 | 21 | 14
Cl.N[C@H]1C[C@@H]1c1ccc(NC(=O)CCCCCNC(=O)c2ccc(O)c3ncccc23)cc1 (relative stereo) | 1 | 2.5 | 12 | 37 | 16
N[C@@H]1C[C@H]1c1ccc(NC(=O)c2ccnc(-c3cc(C(=O)O)ccn3)c2)cc1 (relative stereo) | 2.2 | 0.07 | 0.22 | 0.19 | 2.7
COC(=O)c1ccnc(-c2cc(C(=O)Nc3ccc([C@@H]4C[C@H]4N)cc3)ccn2)c1.Cl (relative stereo) | < 1 | 2.7 | 12.2 | 8.5 | 76
